A short description of the series: physchem. Particulars: 25 °C, organic solvent or mixture, thermodynamic from solid.

Converted amounts (≈) assume the structure as drawn.

In general, solubility refers to how much of the substance goes into solution per volume.

Procedure: The saturation solubility of acitretin was determined by adding an excess amount of acitretin in a conical flask containing a mixture of diethylene glycol monoethyl ether, dimethyl isosorbide, and polysorbate 80, present in a w/w ratio of 3.3:24.1:1. The mixture was kept in a shaking water bath for 24 hours at 25° C.

As to `COc1cc(C)c(/C=C/C(C)=C/C=C/C(C)=C/C(=O)O)c(C)c1C` [acitretin, all-trans-9-(4-methoxy-2,3,6-trimethylphenyl)-3,7-dimethyl-2,4,6,8-nonatetraenoic acid], the solubility at 24 h stood at 2500 µg/mL (≈ 7.66 mM).

These data come from patent US10342774B2, “Topical pharmaceutical composition of acitretin” (priority 2013, dated 2019).
